In PubChem BioAssay (NCI):
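Exposure lasted 48 hours, with cells grown in 96-well plates and compounds tested at five concentrations. TGI is the concentration that stops growth completely.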

What was measured:
Test in all cases: DTP human tumour cell line panel, 48 h
[1] = test system: IGROV1 ovarian
[2] = test system: DMS 114 small cell lung
[3] = test system: 786-0 renal
[4] = test system: SR leukemia
[5] = test system: M14 melanoma
[6] = test system: LXFL 529 NSCLC
[7] = test system: SF-295 CNS
[8] = test system: MOLT-4 leukemia
[9] = test system: KM20L2 colon
[10] = test system: EKVX NSCLC
[11] = test system: NCI/ADR-RES ovarian
[12] = test system: MCF7 breast
[13] = test system: BT-549 breast

Compound	TGI [1]	TGI [2]	TGI [3]	TGI [4]	TGI [5]	TGI [6]	TGI [7]	TGI [8]	TGI [9]	TGI [10]	TGI [11]	TGI [12]	TGI [13]
C[n+]1c2ccccc2c(NC(CCCN=C(N)N)C(=O)O)c2ccccc21 (stereo not drawn)	> 100 µM	> 100 µM	> 100 µM	> 100 µM	> 100 µM	> 100 µM	> 100 µM	> 100 µM	> 100 µM	> 100 µM			
CCOC(=O)CCC(NC(=O)c1ccc(NCc2ccc3nc(-c4ccccc4)c(Cl)nc3c2)cc1)C(=O)OCC (stereo not drawn)	> 100 µM	> 100 µM	> 100 µM	> 100 µM	39.5 µM	> 100 µM	> 100 µM	44.9 µM	> 100 µM	> 100 µM			
CCCCCCCCCCCC(=O)OC[C@@H](C[As](=O)(O)O)OC(=O)CCCCCCCCCCC	3.8 µM	4.54 µM	26.5 µM	57.2 µM	8.47 µM	17.7 µM	27.1 µM	> 77.2 µM	26.4 µM	28.8 µM	36.6 µM	9.24 µM	9.91 µM
O=C1c2ccccc2C(=O)N1C/C=N/NS(=O)(=O)c1ccc(Br)cc1	> 100 µM	> 100 µM	> 100 µM	> 100 µM	> 100 µM	> 100 µM	> 100 µM	> 100 µM	> 100 µM	> 100 µM			
